# Measurements taken from ChEMBL document CHEMBL3507680, “University of Dundee, Gates Library screen for HepG2 cell viability”.
# Assay: Human HepG2 cell viability assay in 384 well format
# Assay type: toxicity, cell-based
# Set-up: dose 125 nL, time 70.5 hour; concentration not given beside the values
# Details: HepG2 cells, read-out: Inhibition
row,SMILES,cytotoxicity at 70.5 h
1,O=C(c1ncoc1C1CC1)N1CCN(CCOc2ccccc2)CC1,26%
2,Cc1cc(C)n(CCCN(C)C(=O)C2COc3ccccc3C2)n1 (stereo not drawn),26.5%
3,COc1ccccc1OC1CN(C(=O)C2CNCC(=O)N2)C1 (stereo not drawn),-9.64%
4,COc1ccccc1-c1ncc(CN2CCC3(CCNCC3)CC2)cn1,-7.68%
5,Cc1ccc(C)c(OCCN(C)C(=O)CCc2cn[nH]c2)c1,-12.7%
6,Cc1nccn1CCN(C)C(=O)C1CCN(C(=O)C2CCC2)CC1,11.3%
7,Cc1cc(CNc2cncc(C(=O)N(C)C)n2)c2[nH]c(C)c(C)c2c1,27.8%
8,Cc1cc(C(=O)N2C[C@H](CO)C[C@H](CN3CCOCC3)C2)nc(C)n1,-7.67%
9,CC(=O)N1CCc2c(nc(N(C)C)nc2NC(C)Cc2cccs2)C1 (stereo not drawn),-6.58%
10,COc1nc2c(cc1C(=O)N1CC[C@H](CO)[C@@H](O)C1)CCC2,-16.1%
11,CN(CC1CCOC1)S(=O)(=O)c1cccc(C(=O)N2CCCCCC2)c1 (stereo not drawn),-14.8%
12,CCc1nc(N)nc(N(C)Cc2nncn2CCOC)c1C,11.8%
13,Cc1ccc(CN(CCN(C)C)C(=O)Nc2cnn(C)c2)s1,-7.54%
14,CCOc1cc2c(cc1CN1CCC3(CC1)CNC(=O)C3)CCC2,23.3%
15,CCC[C@H]1CN(S(C)(=O)=O)C[C@@H]1NC(=O)Cc1ccc(OC)cc1,9.24%
16,Cc1nsc(NC(=O)N2CCc3sccc3C2)n1,-7.28%
17,C[C@@H]1CN(C2CCN(c3ccccc3F)CC2)CC[C@]1(C)O,-5.09%
18,CN1CCC(N(CCc2ccccc2)C(=O)c2cc[nH]c2)CC1,-7.32%
19,CC(C)NC(=O)N1CCCC(Cn2cc(-c3ccc(F)cc3)nn2)C1 (stereo not drawn),23.4%
20,O[C@@H]1CN(c2cnc3ccccc3n2)CC[C@H]1c1ccc2c(c1)OCO2,21%
21,Cc1ncsc1CCN(C)C(=O)c1ccc(Cn2cnnn2)cc1,3.1%
22,COc1cccc(CN2C[C@H]3CC[C@H]2C3)c1OCCN1CCOCC1,-2.04%
23,Cc1cnc(N(C)CCCc2cnn(C)c2)nc1N(C)C,14.8%
24,CCn1nc(C)c(C(C)Nc2cc(C3CCNCC3)nc(C)n2)c1C (stereo not drawn),-23.1%
25,O=C(c1ccncc1)N1CCC(Oc2cccc(C(F)(F)F)c2)CC1,-5.79%
26,Cc1ccc(C(=O)NCCC2CN(C3CCCC3)CCO2)c(C)c1 (stereo not drawn),-4.25%

row,SMILES,cytotoxicity at 70.5 h
1,Cc1cc(C(=O)N2C[C@H](CO)C[C@H](CN3CCOCC3)C2)cnc1C,14.5%
2,Cc1oc(-c2ccoc2)nc1CN1CCCCC1CCn1cccn1 (stereo not drawn),-3.32%
3,Cc1cccc(N2CCN(CCC(=O)NCc3ccc(C)s3)CC2)c1,20.7%
4,CCN(C)S(=O)(=O)N1C[C@@H]2CC[C@H](C1)N(Cc1cscn1)C2=O,-8.95%
5,CC(C)Cc1cn(C2CCN(C(C)CC3CC3)CC2)nn1 (stereo not drawn),-0.853%
6,CNC(=O)c1n[nH]c2c1C(c1cccc3c1OC(C)(C)C3)CC(=O)N2 (stereo not drawn),-1.8%
7,CCc1nccn1CC(=O)N1CCN(C2CCc3ccccc3C2)CC1 (stereo not drawn),-13.3%
8,Cc1ccc(-c2ccnc(N[C@H]3COC[C@@H]3N3CCCCC3)n2)c(C)n1,-11.2%
9,COc1ccc2c(CN3CCCN(Cc4ccncc4)CC3)n[nH]c2c1,-1.17%
10,O=c1n(CC2CCCCO2)nc(CC2CCNCC2)n1-c1ccccc1 (stereo not drawn),-6.56%
11,CCCN(Cc1cccnc1)C(=O)C1CCS(=O)(=O)CC1,6.55%
12,Cn1c(Cn2ccnc2)nnc1C1CCCN(c2ncccn2)C1 (stereo not drawn),-9.36%
13,O=C(CCC1CCN(Cc2ccncc2)CC1)Nc1ccccc1Cl,0.0549%
14,O=C1NCC2(CCCN(C(=O)Nc3ccc4scnc4c3)CC2)O1 (stereo not drawn),-16.7%
15,COCCc1ncc(CN2C[C@H](C3CC3)[C@@H](N)C2)cn1,-8.11%
16,Cc1cnc(C(=O)N2CCN(C(=O)CC(C)C)[C@@H]3CS(=O)(=O)C[C@@H]32)cn1,-7.52%
17,CCOCCn1nc(C)cc1C(=O)N1CCC2(CC1)[C@H](O)C[C@@H]2OCC,0.508%
18,COc1cccc(CC2CN(C3CCCCC3)CCO2)c1 (stereo not drawn),25.1%
19,N#Cc1ccccc1C(=O)N1C[C@@H](CN2CCOCC2)[C@@H](CO)C1,-12%
20,CC(=O)Nc1ccsc1C(=O)Nc1cnc2n1CCCC2,-4.21%
21,CC(=O)c1ccc(N2CCN(C(=O)c3cc(C(C)C)nn3C)CC2)cc1,-14.7%
22,CCCOc1ccc(Cl)cc1CNc1ncnc2oc(C)nc12,-6.3%
23,CN1CCN(S(=O)(=O)c2ccc3c(c2)CN(C(=O)C(C)(C)C)CC3)CC1,-2.56%
24,Cc1nc(CN2CCCC(CCc3cccc(C(F)(F)F)c3)C2)co1 (stereo not drawn),-3.79%
25,CN1CCCN(C[C@@H]2CN(C(=O)CCc3cn[nH]c3)C[C@@H]2CO)CC1,-3.81%
26,O=C(NC1CCCC1)c1cc(Cn2cnc3ccccc32)on1,-1.14%

row,SMILES,cytotoxicity at 70.5 h
1,CCN(CC1CCCCO1)C(=O)CCNC(=O)c1ccccc1F (stereo not drawn),-11.6%
2,CN(C)c1ccccc1C(=O)N1CCCC(c2ccc(C(=O)O)cc2)C1 (stereo not drawn),-17.2%
3,COc1ccccc1-n1nc(CC(C)C)nc1Cc1nnc(N)s1,5.97%
4,COc1cccc2c1OCC(C(=O)NCCCn1nc(C)c(Cl)c1C)C2 (stereo not drawn),-7.76%
5,Cc1cccc(CN2C(=O)OCC2CO)c1F (stereo not drawn),14.6%
6,CCCC(=O)N1CCC(N2CC[C@@](O)(CCOC)[C@H](C)C2)CC1,-5%
7,CNc1nc(C(=O)NCC2CCOc3ccccc3C2)cs1 (stereo not drawn),15.5%
8,CCc1ccc(CN2CCC(CNC(=O)c3ccc(C)nc3)C2)nc1 (stereo not drawn),16%
9,CCC1(CO)CCCN(C(=O)c2cc(COc3ccccc3F)[nH]n2)C1 (stereo not drawn),-0.863%
10,CCc1c(O)nc(SCC(=O)N(CC)CC)n(C(C)CC)c1=O (stereo not drawn),-0.0297%
11,CCCNC(=O)c1ccc(S(=O)(=O)NCC2(COC)CCCC2)cc1,-4.17%
12,CCc1c(O)nc(SC(C)CC)n(-c2ccccc2)c1=O (stereo not drawn),-7.78%
13,COc1cccc(-c2cnnc(N(C)CCC3CCCCO3)n2)c1 (stereo not drawn),0.0165%
14,c1ccc(CCN2CCCC(Cn3ccnc3)C2)cc1 (stereo not drawn),-10.4%
15,CC(C)c1cc(CN(C)C(=O)CN2CCCCC2=O)no1,13.9%
16,Cc1nc(C)n(CC(C)C(=O)N2CCC(CN3CCOCC3)CC2)n1 (stereo not drawn),4.58%
17,Cc1nc(O)cc(CN2C[C@H](NC(=O)C3CCCC3)[C@@H](C3CC3)C2)n1,-9.17%
18,CN(C)CCCn1ccnc1C1CCN(c2cccc(C(=O)O)n2)CC1,-5.15%
19,CCc1nn(C)c(Cl)c1CN1C[C@H](NC(=O)CCO)[C@@H](C(C)C)C1,-5.11%
20,CSc1cccc(CN(C)C(=O)CN2CCN(c3ncccn3)CC2)c1,-8.23%
21,O=C(c1ccccc1-c1nnn[nH]1)N1CCOC(C(F)(F)F)C1 (stereo not drawn),-9.42%
22,O=C1NCCCc2[nH]c(Cc3cccc(F)c3)nc21,-8.57%
23,O=C(CN1CCCC1c1nc(-c2ccccn2)no1)N1CCNCC1 (stereo not drawn),-4.93%
24,Cc1cc(C(=O)N2CCCC3(C=Cc4ccccc4O3)CC2)cc(=O)[nH]1 (stereo not drawn),-7.57%
25,CCN(CC1CCOCC1)C(=O)C1CC(=O)N(Cc2cccnc2)C1 (stereo not drawn),-5.23%
26,O=C(CC1CCc2ccccc21)N1CCC(O)(Cn2ccnc2)CC1 (stereo not drawn),-5.64%
